The record followed here is patent US9067928B2 (Genentech, Inc., priority 2008, dated 2015).

Experiment [1] has as its target T1, Bcl-xL (Homo sapiens, UniProt Q07817).
T1 construct: made in house
The experiment is described as follows: Alpha Screen Bcl-xL binding assay, competition with Bim26-mer. The settings on record: values listed in the order of Table 1; read-out: Alphascreen results (IC50). (In general: In Alpha technology, singlet oxygen from a donor bead excites a nearby acceptor bead.)

Another experiment has as its target T2, Bcl-2 (Homo sapiens, UniProt P10415).
T2 construct: made in house
The experiment is described as follows: TR-FRET binding assay, competition with F-Bak for Bcl-2 binding site. The note with it: GST-Bcl-2, F-Bak probe. On the procedure: (§1) Test compounds were serially diluted in DMSO starting at 50 μM (2× starting concentration; 10% DMSO) and 10 μL transferred into a 384-well plate.
(§2) The samples are then mixed on a shaker for 1 minute then incubated for an additional 2 hours at room temperature. For each assay plate, a probe/antibody and protein/antibody/probe mixture were included as a negative and a positive control, respectively. Fluorescence was measured on the Envision (Perkin Elmer) using a 340/35 nm excitation filter and 520/525 (F-Bak) and 495/510 nm (Tb-labeled anti-his antibody) emission filters. Dissociation constants (Ki) were determined using Wang's equation (see, Wang, Z. X. An exact mathematical expression for describing competitive binding of two different ligands to a protein molecule. FEBS Lett. 1995 360:111-114). The TR-FRET assay can be performed in the presence of varying concentrations of human serum (HS) or fetal bovine serum (FBS).
For comparison, the measurement of the competition of compounds of the invention for other Bcl-2 family protein binding sites (e.g., Bcl-2, Mcl-1) using the TR-FRET binding assay was accomplish by substituting GST-Bcl-xL in the TR-FRET assay with other GST-labeled protein, e.g. GST-Bcl-2, GST-Mcl-1 prepared in-house.
For comparison, data (Ki in micromolar) from the measurement of the competition by certain compounds of the invention (i.e., compounds 1, 28, 38, 63, 71, 75, 80, 81, 92 and 94 in Table 1) with F-Bak for the Bcl-2 binding site using the TR-FRET binding assay are, 1.2, 0.15, 0.01, 0.018, 0.50, 0.272, 0.167, 0.66, 0.23 and 0.000003 respectively.
Background: Time-resolved FRET reads energy transfer from a long-lived donor to a nearby acceptor.

Experiment [2] addresses T1, Bcl-xL. The experiment is described as follows: TR-FRET binding assay, competition with F-Bak for Bcl-xL binding site. The note with it: GST-Bcl-xL, F-Bak probe. On the procedure: The measurement of competition of compounds of the invention with F-Bak for a Bcl-2 family protein (Bcl-xL) binding site using a Time Resolved Fluorescence Resonance Energy Transfer (TR-FRET) Binding Assay:
as §1, §2

T1 sequence (Q07817 whole entry, species assumed): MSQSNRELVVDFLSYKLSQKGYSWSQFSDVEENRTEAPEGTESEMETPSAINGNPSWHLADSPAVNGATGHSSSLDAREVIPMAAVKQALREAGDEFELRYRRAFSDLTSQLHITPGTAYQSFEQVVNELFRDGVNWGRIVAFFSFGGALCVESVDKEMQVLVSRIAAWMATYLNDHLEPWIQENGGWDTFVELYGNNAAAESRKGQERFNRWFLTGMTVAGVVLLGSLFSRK
T2 sequence (P10415 whole entry, species assumed): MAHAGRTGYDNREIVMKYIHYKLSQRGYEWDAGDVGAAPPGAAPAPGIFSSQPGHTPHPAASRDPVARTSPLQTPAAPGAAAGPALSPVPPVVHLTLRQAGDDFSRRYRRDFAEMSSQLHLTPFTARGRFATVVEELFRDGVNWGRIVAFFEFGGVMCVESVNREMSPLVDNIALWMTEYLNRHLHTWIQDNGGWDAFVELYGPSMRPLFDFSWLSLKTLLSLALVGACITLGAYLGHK

Usually IC50 stands for the concentration that gives 50% inhibition. As a reminder, the Ki is a measure of affinity in units of concentration, obtained from inhibition or displacement. On to `O=C(O)c1nc(-c2ccc3c(c2)N(C(=O)Nc2nc4ccccc4s2)CCC3)sc1-c1ccc(-c2ccccc2)cc1` [Example 92, 2-(1-(benzo[d]thiazol-2-ylcarbamoyl)-1,2,3,4-tetrahydroquinolin-7-yl)-5-(biphenyl-4-yl)thiazole-4-carboxylic acid], for which the IC50 on Bcl-xL [1] stood at 2 nM. Also, the Ki on Bcl-2 is 230 nM; on Bcl-xL [2], 0.5 nM.
